Reference: patent US20230150920A1, “SALTS AND SOLID FORMS OF 4-BROMO-2,5-DIMETHOXYPHENETHYLAMINE” (priority 2021, published 2023)
Entries after “also recorded” stand apart in the source; their conditions may differ. Read-outs that look alike come from different tables or passages of the source.

Experiments:
[1] = Dynamic vapor sorption (DVS) with XRPD of the post-DVS sample; format: physicochemical; settings: for hygroscopicity based on DVS data / moisture gain by DVS / moisture gain by DVS, equivalent moles of water: 25° C.; for hygroscopicity based on DVS data: 5 to 95% RH; for moisture gain by DVS / moisture gain by DVS, equivalent moles of water: adsorption 5 to 95% RH; for post-DVS XRPD result: XRPD of the post-DVS sample; for DVS desorption weight loss, 85-5% RH: desorption 85-5% RH; for DVS desorption weight loss, 95-85% RH: desorption 95-85% RH; for behaviour on desorption / form change by XRPD of post-DVS sample: desorption 95 to 5% RH; for DVS sorption weight gain, 5-85% RH: sorption 5-85% RH; for DVS sorption weight gain, 85-95% RH: sorption 85-95% RH; for DVS desorption weight loss, 95-5% RH: desorption 95-5% RH; for DVS sorption weight gain, 5-95% RH: sorption 5-95% RH
Procedure: Dynamic Vapor Sorption (DVS) analysis was carried out using a TA Instruments Q5000 Dynamic Vapor Sorption analyzer. The instrument was calibrated with standard weights and a sodium bromide standard for humidity. Approximately 10-25 mg of sample was loaded into a metal-coated quartz pan for analysis. The sample was analyzed at 25° C. with a maximum equilibration time of one hour in 10% relative humidity (RH) steps from 5 to 95% RH (adsorption cycle) and from 95 to 5% RH (desorption cycle). The movement from one step to the next occurred either after satisfying the equilibrium criterion of 0.01% weight change or, if the equilibrium criterion was not met, after one hour. The percent weight change values were calculated using Microsoft Excel.
(§1) The DVS analysis was carried out using a TA Instruments Q5000 Dynamic Vapor Sorption analyzer. 13.5 mg of sample was loaded into a metal-coated quartz pan for analysis. After equilibration to 5% relative humidity (RH), the sample was analyzed at 25° C. in 10% RH steps from 5 to 95% RH (adsorption cycle) and from 95 to 5% RH (desorption cycle). The movement from one step to the next occurred either after satisfying the equilibrium criterion of 0.01% weight change in 5 minutes or, if the equilibrium criterion was not met, after 90 minutes. The percent weight change values are calculated using Microsoft Excel®.
as §1, with “DVS analyses were” for “DVS analysis was”, “analyzer. Approximately 7-11” for “analyzer. 13.5”, “equilibration at” for “equilibration to”, “values were” for “values are”
as §1, with “analyzer. Approximately 2” for “analyzer. 13.5”, “equilibration at” for “equilibration to”, “values were” for “values are”

[2] = Deliquescence at 75% RH at ambient temperature; format: physicochemical
[3] = Dynamic vapor sorption/desorption (DVS), hygroscopicity; format: physicochemical; settings: for Hygroscopicity: grade in words, from DVS; for Water uptake (5-95% RH) %: total; for Water uptake (5-85% RH) %: 5-85% RH part of sorption; for Water uptake (85-95% RH) %: 85-95% RH part of sorption
Procedure: The active pharmaceutical ingredient (API), 4-bromo-2,5-dimethoxyphenethylamine hydrochloride, is characterized to evaluate its physical properties. The evaluation is performed by X-ray powder diffraction (XRPD), polarized light microscopy (PLM), differential scanning calorimetry (DSC), thermogravimetry (TG), dynamic vapor sorption/desorption (DVS), and/or solubility testing in organic solvents, water, and mixed solvent systems. XRPD data are used to assess crystallinity. PLM data are used to evaluate crystallinity and particle size/morphology. DSC data are used to evaluate melting point, thermal stability, and crystalline form conversion. TG data are used to evaluate if the API is a solvate or hydrate, and to evaluate thermal stability. DVS data are used to evaluate hygroscopicity of the API and if hydrates can be formed at high relative humidity.
The form characterized in FIGS. 1 and 2 is designated as Form A herein. […] A sharp endotherm at 238° C. in the DSC thermogram is attributed to melting.

[4] = Slurry
Text: The sample was then centrifuged, while still warm, and the mother liquor was decanted. The isolated solids were air-dried and analyzed by XRPD.

[5] = several days at 75% RH at ambient temperature

Row | Molecule | hygroscopicity based on DVS data [1] | moisture gain by DVS [1] [%] | moisture gain by DVS, equivalent moles of water [1] | post-DVS XRPD result [1] | DVS desorption weight loss, 85-5% RH [1] | DVS desorption weight loss, 95-85% RH [1] | behaviour on desorption / form change by XRPD of post-DVS sample [1] | DVS desorption total loss [1] | DVS sorption weight gain, 5-85% RH [1] | DVS sorption weight gain, 85-95% RH [1] | DVS sorption total gain [1] | deliquescence ([2]; at 75% RH) | deliquescence [2, 5] | Hygroscopicity: weight gain ([3]; <85% RH) | Hygroscopicity: weight gain ([3]; >85% RH) | Hygroscopicity [3] | DVS desorption weight loss, 95-5% RH [1] | DVS sorption weight gain, 5-95% RH [1] | Hygroscopicity: weight gain ([3]; 5-95% RH) | Water uptake (5-95% RH) % ([3]; 5-95% RH) [%] | also measured
1 | COc1cc(CCN)c(OC)cc1Br.CS(=O)(=O)O [Mesylate, 2C-B mesylate] | hygroscopic | 7.2 | approximately 1.5 moles | Consistent with Mesylate | 85-5% RH: 3.0% loss | 95-85% RH: 4.4% loss | form change is not apparent by XRPD | Total loss: 7.4% | 5-85% RH: 2.7% gain | 85-95% RH: 4.5% gain | Total gain: 7.2% | Did not deliquesce | not observed | RH: 2.7% | RH: 4.5% gain | Hygroscopic; <85% | – | – | – | – | –
2 | COc1cc(CCN)c(OC)cc1Br.O=C(O)C(O)C(O)C(=O)O [Tartrate (Form 1), 4-bromo-2,5-dimethoxyphenethylamine (2C-B) tartrate] | non-hygroscopic | 0.1 | – | Crystalline, consistent | – | – | Form change does not occur | – | – | – | – | Did not deliquesce | not observed; also recorded: does not deliquesce | – | – | Non-hygroscopic; | 95-5% RH: 0.1% loss | 5-95% RH: 0.1% gain | 5-95% RH: 0.1% | 0.1 | –
3 | COc1cc(CCN)c(OC)cc1Br.O=S(=O)(O)O [Sulfate, 2C-B sulfate] | slightly hygroscopic | 2.2 | approximately 0.5 moles | Consistent with Sulfate | 85-5% RH: 0.8% loss | 95-85% RH: 1.3% loss | form change does not occur | Total loss: 2.1% | 5-85% RH: 0.8% gain | 85-95% RH: 1.4% gain | Total gain: 2.2% | Did not deliquesce | not observed | RH: 0.8% | RH: 1.4% | Slightly | – | – | – | 2.2 | Water uptake (5-85% RH) % [3]: 0.8%; Water uptake (85-95% RH) % [3]: (5-85), 1.4 (85-95) %
4 | COc1cc(CCN)c(OC)cc1Br.O=C(O)CC(O)(CC(=O)O)C(=O)O [Citrate (Form 2), 2C-B Citrate] | slightly hygroscopic | 0.5 | 0.1 mol | Consistent with Citrate (Form 2) | – | – | form change does not occur | – | – | – | – | Did not deliquesce | not observed | – | – | Slightly | 95-5% RH: 0.5% loss | 5-95% RH: 0.5% gain | 5-95% RH: 0.5% | – | –
5 | COc1cc(CCN)c(OC)cc1Br.O=S(=O)(O)c1ccccc1 [Besylate (Form 1), 2C-B besylate] | slightly hygroscopic | 0.7 | 0.2 mol | Consistent with Besylate (Form 1) | – | – | does not undergo form conversion | – | – | – | – | Did not deliquesce | not observed | – | – | Slightly | 95-5% RH: 0.7% loss | 5-95% RH: 0.7% gain | 5-95% RH: 0.7% | – | –
6 | COc1cc(CCN)c(OC)cc1Br.O=C(O)c1cc(O)ccc1O [Gentisate, 2C-B gentisate] | non-hygroscopic | 0.2 | 0.05 mol | Crystalline, consistent | – | – | form change does not occur | – | – | – | – | Did not deliquesce | not observed; also recorded: does not deliquesce | – | – | Non-hygroscopic; | 95-5% RH: 0.2% loss | 5-95% RH: 0.2% gain | 5-95% RH: 0.2% | 0.20 | –
7 | COc1cc(CCN)c(OC)cc1Br.O=C(O)C(O)C(O)C(=O)O [2C-B tartrate, 4-bromo-2,5-dimethoxyphenethylamine (2C-B) tartrate] | – | – | – | – | – | – | – | – | – | – | – | – | – | – | – | – | – | – | – | – | XRPD result after slurry ([4]; ACN, 50° C., 9 days): Tartrate (Form 1); XRPD result after slurry ([4]; DMF/acetone 50/50, RT): Tartrate (Form 1); XRPD result after slurry ([4]; EtOAc, 50° C., 9 days): Tartrate (Form 1); XRPD result after slurry ([4]; EtOAc/DMSO 71/29, RT): Tartrate (Form 1) +; XRPD result after slurry ([4]; EtOH, 50° C., 9 days): Tartrate (Form 1); XRPD result after slurry ([4]; EtOH/H2O 50/50, aw = 0.89, RT): Tartrate (Form 1); XRPD result after slurry ([4]; EtOH/H2O 80/20, aw = 0.70, RT): Tartrate (Form 1); XRPD result after slurry ([4]; EtOH/H2O 90/10, aw = 0.49, RT): Tartrate (Form 1); XRPD result after slurry ([4]; IPA, 50° C., 9 days): Tartrate (Form 1); XRPD result after slurry ([4]; IPA/H2O 70/30, aw = 0.94, RT): Tartrate (Form 1); XRPD result after slurry ([4]; MEK, 50° C., 9 days): Tartrate (Form 1); XRPD result after slurry ([4]; MeOH, RT): Tartrate (Form 1); XRPD result after slurry ([4]; MeOH/H2O 95/5, aw = 0.16, RT): Tartrate (Form 1); XRPD result after slurry ([4]; THF/H2O 50/50, aw = 1.00, 5° C.): Tartrate (Form 1); XRPD result after slurry ([4]; acetone/H2O 50/50, aw = 0.91, 5° C.): Tartrate (Form 1)
8 | 2C-B glycolate | moderately hygroscopic | 3.6 | 0.7 mol | Consistent with Glycolate | 85-5% RH: 1.1% loss | 95-85% RH: 2.6% loss | form change is not apparent by XRPD | Total loss: 3.7% | 5-85% RH: 0.9% gain | 85-95% RH: 2.7% gain | Total gain: 3.6% | Did not deliquesce | not observed | RH: 0.9% | RH: 2.7% gain | Mod. hygroscopic; <85% | – | – | – | 3.6 | moisture gain by DVS above 85% RH ([1]; above 85% RH): 2.7%; Water uptake (5-85% RH) % [3]: 0.9%; Water uptake (85-95% RH) % [3]: (5-85), 2.7 (85-95) %
